The IC50 is the point on the concentration scale where inhibition reaches its midpoint.

From patent US20120202876A1, “METHODS OF TREATING DISEASES WITH PROANTHOCYANIDIN OLIGOMERS SUCH AS CROFELEMER” (NAPO PHARMACEUTICALS, INC., priority 2009, published 2012) come the findings set out here.

This assay concerns the target T1, human CFTR (Homo sapiens, UniProt P13569).
T1 construct: expressed in transfected cells
The assay can be described thus: Apical membrane Cl− current in CFTR-expressing FRT cells. The format is cell-based. Particulars: for inhibition of CFTR after crofelemer pre-treatment: 50 μM crofelemer added first; for IC50 in absence versus presence of crofelemer: 50 μM crofelemer pre-added. The protocol:
CFTR Cl^− current was measured in CFTR-expressing FRT cells in which the basolateral membrane was permeabilized by amphotericin B and a transepithelial Cl^− gradient was applied. Under these conditions, the measured current provides a direct quantitative measure of CFTR Cl^− conductance.
Measurements were done to investigate whether the Crofelemer inhibition potency depended on the CFTR activation mechanism. […] The reversibility of crofelemer inhibition of CFTR was investigated, since washout during secretory diarrhea is a concern in the use of a non-absorbable antisecretory agent. […] Following extensive washing, residual CFTR inhibition was determined from the current after re-stimulation by CPT-cAMP.
Comparisons of CFTR inhibition in the absence and presence of pre-added crofelemer tested the possibility that the site of action of crofelemer on CFTR might overlap with that of the small-molecule thiazolidinone and glycine hydrazide CFTR inhibitors.
FRT cells expressing human TMEM16A (cDNA provided by Dr. Luis Galietta, Gaslini Institute, Genoa, Italy) were generated similarly. FRT cells were cultured in F-12 Modified Coon's Medium (Sigma) supplemented with 10% fetal bovine serum (Hyclone), 2 mM glutamine, 100 units/ml penicillin, 100 μg/ml streptomycin, 350 μg/ml hygromycin and 500 μg/ml geneticin. […] T84 cells were cultured in DMEM/Ham's F-12 (1:1) medium containing 10% FBS, 100 units/ml penicillin and 100 μg/ml streptomycin.
FRT cells (stably expressing CFTR or TMEM16A) were cultured on Snapwell filters until confluence (transepithelial resistance >500 ohm.cm). Short-circuit current was measured in Ussing chambers (Vertical diffusion chamber; Costar) with Ringer's solution bathing the basolateral surface and half-Ringer's bathing the apical surface. Ringer's solution contained: 130 mM NaCl, 2.7 mM KCl, 1.5 mM KH2PO4, 1 mM CaCl2, 0.5 mM MgCl2, 10 mM Na-HEPES, 10 mM glucose, pH 7.3. Half-Ringer's solution was the same, except that 65 mM NaCl was replaced with Na gluconate, and CaCl2 was increased to 2 mM. […] Chambers were bubbled continuously with air. For T84 cells and bronchial epithelial cells, cells were bathed in symmetrical HCO3—buffered solution containing (in mM): 120 NaCl, 5 KCl, 1 MgCl2, 1 CaCl2, 10 D-glucose, 5 HEPES, and 25 NaHCO3 (pH 7.4), and aerated with 5% CO2 at 37° C. For the measurement of apical K+ conductance in T84 cells, NaHCO3 and NaCl were replaced with Na gluconate, and Na gluconate in basolateral solution was replaced with K gluconate and bubbled with air. The basolateral membrane was permeabilized with 20 μM amphotericin B. Short-circuit current was measured using a DVC-1000 voltage-clamp apparatus (World Precision Instruments).

T1 sequence (P13569 whole entry): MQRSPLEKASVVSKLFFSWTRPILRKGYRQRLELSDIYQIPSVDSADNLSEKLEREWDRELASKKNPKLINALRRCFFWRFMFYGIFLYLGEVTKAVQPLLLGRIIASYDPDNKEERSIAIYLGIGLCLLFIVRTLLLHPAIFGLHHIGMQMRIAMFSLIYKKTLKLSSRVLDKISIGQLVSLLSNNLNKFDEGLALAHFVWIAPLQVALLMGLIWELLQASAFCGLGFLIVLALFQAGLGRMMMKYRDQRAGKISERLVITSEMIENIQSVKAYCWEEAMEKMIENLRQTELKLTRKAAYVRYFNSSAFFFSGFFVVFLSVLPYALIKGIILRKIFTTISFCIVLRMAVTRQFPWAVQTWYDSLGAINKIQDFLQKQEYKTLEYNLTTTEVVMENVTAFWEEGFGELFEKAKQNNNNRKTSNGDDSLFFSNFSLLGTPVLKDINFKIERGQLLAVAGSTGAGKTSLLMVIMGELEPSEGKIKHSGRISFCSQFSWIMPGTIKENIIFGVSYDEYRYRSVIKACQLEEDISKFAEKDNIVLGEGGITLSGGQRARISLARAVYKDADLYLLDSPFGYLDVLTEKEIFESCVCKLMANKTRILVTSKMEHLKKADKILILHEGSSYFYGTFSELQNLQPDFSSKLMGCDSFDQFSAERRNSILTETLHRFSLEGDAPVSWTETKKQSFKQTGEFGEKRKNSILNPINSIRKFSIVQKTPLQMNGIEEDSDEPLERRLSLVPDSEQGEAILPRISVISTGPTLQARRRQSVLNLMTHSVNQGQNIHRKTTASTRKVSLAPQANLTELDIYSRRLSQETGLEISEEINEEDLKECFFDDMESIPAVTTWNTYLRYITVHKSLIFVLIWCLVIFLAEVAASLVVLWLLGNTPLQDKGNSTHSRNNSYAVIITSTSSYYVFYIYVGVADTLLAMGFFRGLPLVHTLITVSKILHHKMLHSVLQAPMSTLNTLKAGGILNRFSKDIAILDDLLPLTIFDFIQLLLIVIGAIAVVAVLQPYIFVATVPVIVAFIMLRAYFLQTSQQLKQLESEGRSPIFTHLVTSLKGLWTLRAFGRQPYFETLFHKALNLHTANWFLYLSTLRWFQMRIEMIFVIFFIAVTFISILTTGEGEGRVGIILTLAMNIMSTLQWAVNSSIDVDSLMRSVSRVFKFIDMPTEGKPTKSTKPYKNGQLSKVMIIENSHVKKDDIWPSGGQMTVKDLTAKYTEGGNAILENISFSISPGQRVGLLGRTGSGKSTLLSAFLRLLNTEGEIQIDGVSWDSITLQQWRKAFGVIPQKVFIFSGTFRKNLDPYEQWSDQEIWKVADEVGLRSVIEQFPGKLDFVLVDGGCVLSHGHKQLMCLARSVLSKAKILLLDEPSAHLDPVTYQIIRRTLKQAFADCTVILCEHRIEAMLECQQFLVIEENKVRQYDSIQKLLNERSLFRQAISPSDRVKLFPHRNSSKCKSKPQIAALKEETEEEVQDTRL

Regarding `O=C(CNc1ccc2ccccc2c1)N/N=C/c1cc(Br)c(O)c(Br)c1O` [GlyH-101], the “inhibition of CFTR after crofelemer pre-treatment” value is around 100% and the “IC50 in absence versus presence of crofelemer” value is “similar”. Further, the IC50 (CFTR activated by CPT-cAMP, basolateral membrane permeabilized, Cl− gradient, inhibitor in apical solution, read-out: apparent IC50 for inhibition of CFTR Cl− current) was around 8 µM.

CFTRinh-172: the “inhibition of CFTR after crofelemer pre-treatment” value was around 100% and the “IC50 in absence versus presence of crofelemer” value was “similar”.
